Drawing on PubChem BioAssay AID588807 (The Scripps Research Institute Molecular Screening Center, 2011), this text covers inhibition for 8 compounds.

Test in all cases: competitive ABPP of Abhd10 versus anti-targets – biochemical, fluorescence, gel-based, mouse proteome, selectivity assay for PME-1 inhibitor project, late-stage follow-up (AID 588807)
In one assay the test system is Magl. The note with it: anti-target, stronger effect = higher value.
The next assay deals with Kiaa1363. To be noted: anti-target, at 10 µM, stronger effect = higher value.
Assay [1] addresses Prolyl endopeptidase (Mus musculus) (UniProt Q9QUR6). To be noted: PREP, anti-target, stronger effect = higher value.
The test system of another assay is APEH. The note with it: anti-target, at 10 µM, stronger effect = higher value.
Assay [2] has as its target Monoacylglycerol lipase ABHD6 (Mus musculus) (UniProt Q8R2Y0). The note with it: anti-target, stronger effect = higher value.
Assay [3] addresses Palmitoyl-protein thioesterase ABHD10, mitochondrial (Mus musculus) (UniProt Q6PE15). The note with it: stronger effect = higher value.

The source made the active and inactive calls. How the calls were made is not given here.

Palmitoyl-protein thioesterase ABHD10, mitochondrial (Mus musculus), sequence (Q6PE15 whole entry, looked up): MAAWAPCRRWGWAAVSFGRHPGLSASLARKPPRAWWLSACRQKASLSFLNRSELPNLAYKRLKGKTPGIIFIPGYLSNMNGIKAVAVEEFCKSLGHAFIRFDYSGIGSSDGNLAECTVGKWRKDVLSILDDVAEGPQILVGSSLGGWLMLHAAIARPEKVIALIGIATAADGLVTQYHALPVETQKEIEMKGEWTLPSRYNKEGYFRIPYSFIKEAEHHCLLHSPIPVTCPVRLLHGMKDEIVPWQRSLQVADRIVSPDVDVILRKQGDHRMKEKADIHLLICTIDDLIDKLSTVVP
Monoacylglycerol lipase ABHD6 (Mus musculus), sequence (Q8R2Y0 whole entry, looked up): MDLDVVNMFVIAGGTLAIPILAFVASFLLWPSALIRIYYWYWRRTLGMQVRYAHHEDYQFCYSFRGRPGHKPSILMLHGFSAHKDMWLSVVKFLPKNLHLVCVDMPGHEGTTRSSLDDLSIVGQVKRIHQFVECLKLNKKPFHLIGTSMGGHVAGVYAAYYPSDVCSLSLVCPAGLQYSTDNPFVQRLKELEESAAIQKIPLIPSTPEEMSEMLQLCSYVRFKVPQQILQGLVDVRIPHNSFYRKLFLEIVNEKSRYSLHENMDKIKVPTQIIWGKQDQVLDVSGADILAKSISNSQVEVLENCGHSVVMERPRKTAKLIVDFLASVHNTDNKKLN
Prolyl endopeptidase (Mus musculus), sequence (Q9QUR6 whole entry, looked up): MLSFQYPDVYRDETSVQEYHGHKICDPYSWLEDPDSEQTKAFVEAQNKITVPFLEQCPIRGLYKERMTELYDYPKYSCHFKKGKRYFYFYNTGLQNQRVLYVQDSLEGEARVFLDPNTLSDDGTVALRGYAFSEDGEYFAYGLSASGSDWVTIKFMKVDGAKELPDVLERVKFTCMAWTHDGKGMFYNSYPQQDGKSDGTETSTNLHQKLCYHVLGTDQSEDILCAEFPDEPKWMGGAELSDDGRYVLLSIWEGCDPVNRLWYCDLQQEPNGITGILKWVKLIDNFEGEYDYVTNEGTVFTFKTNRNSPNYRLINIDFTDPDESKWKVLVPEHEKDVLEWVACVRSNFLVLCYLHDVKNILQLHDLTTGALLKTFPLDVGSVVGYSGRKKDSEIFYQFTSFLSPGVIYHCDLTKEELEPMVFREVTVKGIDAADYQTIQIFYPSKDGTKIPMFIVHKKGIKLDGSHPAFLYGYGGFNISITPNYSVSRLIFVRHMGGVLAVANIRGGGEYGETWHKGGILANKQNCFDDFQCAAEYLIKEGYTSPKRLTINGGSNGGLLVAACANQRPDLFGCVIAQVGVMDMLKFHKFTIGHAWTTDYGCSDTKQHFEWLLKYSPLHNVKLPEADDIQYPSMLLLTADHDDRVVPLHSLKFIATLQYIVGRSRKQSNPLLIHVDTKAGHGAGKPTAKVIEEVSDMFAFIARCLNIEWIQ

Take `CC[C@@]1(c2cccc(OC)c2)C(=O)N(C(=O)OC(C)C)N1C(=O)OC(C)C`: the inhibition was 0% (inactive) in the assay on Magl (at 10 µM); 0% (inactive) in the assay with Kiaa1363; 0% (inactive) in assay [1] (at 10 µM); 0% (inactive) in the assay on APEH; 25% (inactive) in assay [2] (at 10 µM); 95% (inactive) in assay [3] (at 10 µM). For the same compound, the inhibition in assay [3] (inhibition, at 0.1 µM) stood at 40%; in assay [3] (inhibition, at 1 µM) it was 90%.
Take `CC[C@@]1(c2cccc(C)c2)C(=O)N(C(=O)OC(C)C)N1C(=O)OC(C)C`: the inhibition in the assay on Magl (at 10 µM) is 0% (inactive); in the assay on Kiaa1363 it was 0% (inactive); in assay [1] (at 10 µM), 55% (inactive); in assay [1] (inhibition, at 1 µM), 20%; with APEH, 75% (inactive); in assay [2] (at 10 µM), 70% (inactive). Besides, the inhibition was 20% in assay [2] (inhibition, at 1 µM); 100% (inactive) in assay [3] (at 10 µM); 30% in assay [3] (inhibition, at 0.1 µM); 100% in assay [3] (inhibition, at 1 µM).
On to `C=CCOC(=O)N1C(=O)[C@@](CC)(c2cccc(C)c2)N1C(=O)OCC=C`, for which the inhibition in the assay on Magl (at 10 µM) was 50% (inactive); with Kiaa1363, 20% (inactive); in assay [1] (at 10 µM), 65% (inactive); in assay [1] (inhibition, at 1 µM), 10%; in the assay on APEH, 20% (inactive); in assay [2] (at 10 µM), 75% (inactive). The inhibition in assay [3] (at 10 µM) is 90% (inactive); in assay [3] (inhibition, at 0.1 µM), 35%; in assay [3] (inhibition, at 1 µM), 85%.
For `CCCOC(=O)N1C(=O)C(CC)(c2cccc(C)c2)N1C(=O)OCCC` (centres undefined), the inhibition in the assay on Magl (at 10 µM) is 25% (inactive); in the assay on Magl (inhibition, at 1 µM), 10%; in the assay with Kiaa1363 it was 0% (inactive); in assay [1] (at 10 µM), 60% (inactive); in assay [1] (inhibition, at 1 µM) it was 20%; with APEH, 10% (inactive). Moreover, the inhibition in assay [2] (at 10 µM) is 70% (inactive); in assay [3] (at 10 µM) it was 100% (inactive); in assay [3] (inhibition, at 0.1 µM), 10%; in assay [3] (inhibition, at 1 µM), 95%.
For `CC[C@@]1(c2cccc(C)c2)C(=O)N(C(=O)OC)N1C(=O)OC`, the inhibition was 45% (inactive) with Magl (at 10 µM); 35% (inactive) with Kiaa1363; 85% (inactive) in assay [1] (at 10 µM); 20% in assay [1] (inhibition, at 1 µM); 50% (inactive) in the assay with APEH; 50% (inactive) in assay [2] (at 10 µM). Also, the inhibition in assay [3] (at 10 µM) is 100% (inactive); in assay [3] (inhibition, at 0.1 µM) it was 35%; in assay [3] (inhibition, at 1 µM), 100%.
For the compound `C=CCOC(=O)N1N(C(=O)OC)C(=O)[C@@]1(CC)c1ccccc1`, the inhibition was 20% (inactive) with Magl (at 10 µM); 55% (inactive) in the assay on Kiaa1363; 55% (inactive) in assay [1] (at 10 µM); 10% in assay [1] (inhibition, at 0.1 µM); 25% in assay [1] (inhibition, at 1 µM); 0% (inactive) with APEH. Moreover, the inhibition is 60% (inactive) in assay [2] (at 10 µM); 90% (inactive) in assay [3] (at 10 µM); 10% in assay [3] (inhibition, at 0.1 µM); 60% in assay [3] (inhibition, at 1 µM).
In the case of `CC[C@@]1(c2ccccc2C)C(=O)N(C(=O)OC)N1C(=O)OC`, the inhibition was 10% (inactive) in the assay with Magl (at 10 µM); 10% in the assay on Magl (inhibition, at 0.1 µM); 25% (inactive) with Kiaa1363; 70% (inactive) in assay [1] (at 10 µM); 20% in assay [1] (inhibition, at 0.1 µM); 55% (inactive) with APEH. For the same compound, the inhibition in assay [2] (at 10 µM) was 40% (inactive); in assay [3] (at 10 µM), 90% (inactive); in assay [3] (inhibition, at 0.1 µM), 20%; in assay [3] (inhibition, at 1 µM) it was 15%.
Regarding `CC[C@@]1(c2ccc(Cl)c(Cl)c2)C(=O)N(C(=O)OC)N1C(=O)OC`, the inhibition in the assay with Magl (at 10 µM) was 10% (inactive); in the assay on Kiaa1363 it was 0% (inactive); in assay [1] (at 10 µM) it was 25% (inactive); in the assay on APEH, 55% (inactive); in assay [2] (at 10 µM), 0% (inactive); in assay [3] (at 10 µM) it was 90% (inactive). In addition, the inhibition is 20% in assay [3] (inhibition, at 0.1 µM) and 70% in assay [3] (inhibition, at 1 µM).

The term inhibition denotes the drop in the measured response relative to a control, in per cent.
